The term IC50 denotes the concentration needed to halve the response being measured.

Values after ≈ are worked out from the molar mass of the structure shown. Where two headings read alike, the source gives them in different places. Where only a bound is given, the exact number is not on record here.

Results on 21 compounds are retold here after EP0286926A2, “Semi-synthetic rhodomycins, method for their preparation and their use as cytostatics” (BEHRINGWERKE Aktiengesellschaft, priority 1987, dated 1988).

For this assay, the system named is L1210 Leukämiezellen. As to the kind of experiment: Colony formation of L1210 leukemia cells in soft agar. The class given is cell-based, Maus. As to conditions: for IC50: Mus musculus. From the text:
Die zytostatische Wirksamkeit der erfindungsgemäßen Verbindungen wurde anhand von L1210 Leukämiezellen der Maus getestet. Hierzu wurde die Koloniebildung von L1210 Leukämiezellen in Agarplatten herangezogen. Diese Methode dient zum Nachweis des Einflusses der Testsubstanzen auf das Wachstumsverhalten der Zellen nach Inkubation von 1 Stunde oder über mehrere Generationen. Bei einer Zelzykluszeit von 10-12 Stunden werden dabei in der Testzeit von 7 Tagen etwa 14 aufeinanderfolgende Generationen beobachtet. Die erfindungsgemäßen zytostatisch wirksamen Substanzen bewirken in diesem Test eine Reduktion der zu beobachtenden Koloniezahl gegenüber einer unbehandelten Kontrollprobe.
Einzelheiten des Testverfahrens ergeben sich aus der nachfolgenden Verfahrensweise zur Ermittlung der Koloniebildung.
Verfahrensweise zur Ermittlung der Koloniebildung von L1210 Leukämiezellen in Soft-Agar
500 Leukämiezellen pro Platte wurden mit unterschiedlichen Konzentrationen der Testsubstanz 1 Stunde bei 37°C inkubiert. Anschließend wurden die Zellen zweimal mit McCoy5A-Medium gewaschen und schließlich in Petrischalen nach Zugabe von 0,3 % Agar ausgegossen. Kontrollen wurden lediglich mit frischem Medium inkubiert. Anstelle der einstündigen Inkubation wurden in manchen Fällen unterschiedliche Konzentrationen und Testsubstanzen der oberen Agarschicht zugemischt, um so eine kontinuierliche Exposition der Zellen über die gesamte Inkubationszeit zu erreichen. Nach Erstarren des Agars wurden die Platten im Brutschrank 7 Tage bei 37°C inkubiert (5 Vol.-% CO₂, 94 % relative Luftfeuchtigkeit). Anschließend wurde die Zahl der entstandenen Kolonien mit einem Durchmesser von mehr als 60 µm gezählt. Die Ergebnisse wurden angegeben als Koloniezahl in behandelten Agarplatten in Prozent der unbehandelten Kontrolle. Aus der so erhaltenen Dosiswirkungskruve wurde die IC₅₀ als Maß für die Wirksamkeit der Substanz ermittelt. Die Ergebnisse für die hier beschriebenen Verbindungen im Vergleich zu Adriamycin sind in der nachfolgenden Tabelle 1 zusammengefaßt.

Setting [1] is: L1210, 168 h, read-out: Dauerinkubation IC50.
The mark [2] stands for this setting: L1210, read-out: 1h-Inkubation IC50.
The mark [3] stands for this setting: 1 h incubation with substance at 37°C, cells washed twice, then plated in 0,3 % agar for 7 days, colonies > 60 µm counted.
The mark [4] stands for this setting: continuous exposure: substance mixed into upper agar layer for the whole 7-day incubation at 37°C, colonies > 60 µm counted, percent of untreated control.
[5] abbreviates: L1210, 168 h, continuous exposure: substance mixed into upper agar layer for the whole 7-day incubation at 37°C, colonies > 60 µm counted, percent of untreated control, read-out: Dauerinkubation IC50.
[6] abbreviates: L1210, 1 h incubation with substance at 37°C, cells washed twice, then plated in 0,3 % agar for 7 days, colonies > 60 µm counted, read-out: 1h-Inkubation IC50.

For `CC[C@@]1(O)C[C@H](O[C@H]2C[C@H](N)[C@H](O)[C@H](C)O2)c2c(O)c3c(c(O)c2[C@H]1O[C@H]1C=C[C@@H](O)[C@H](C)O1)C(=O)c1cccc(O)c1C3=O` [Beispiel 42, 10-0-(2,3,6-Tridesoxy-α-L-erythro-hex-2-enopyranosyl)-7-0-α-L-daunosaminyl-β-rhodomycinon], the IC50 under setting [1] was 0.16 µg/mL (≈ 0.255 µM) and the IC50 under setting [2] was over 1 µg/mL.
With `CC[C@@]1(O)C[C@H](O[C@@H]2O[C@@H](C)[C@H](OC(C)=O)[C@@H](OC(C)=O)[C@H]2I)c2c(O)c3c(c(O)c2[C@H]1OC1CCCCO1)C(=O)c1cccc(O)c1C3=O` (stereo partly drawn) [Beispiel 25, 7-O-(3,4-Di-O-acetyl-2,6-didesoxy-2-iodo-α-L-mannopyranosyl)-10-O-tetrahydropyranyl-β-rhodomycinon], under setting [3], the “1h-Inkubation IC50” value was over 1 µg/mL. Further, the “Dauerinkubation IC50” value under setting [4] was over 1 µg/mL.
For the compound `CC[C@@]1(O)C[C@H](O[C@H]2C[C@H](NC(=O)C(F)(F)F)[C@H](OC(=O)c3ccc([N+](=O)[O-])cc3)[C@H](C)O2)c2c(O)c3c(c(O)c2[C@H]1O[C@@H]1C[C@H](NC(=O)C(F)(F)F)[C@H](OC(=O)c2ccc([N+](=O)[O-])cc2)[C@H](C)O1)C(=O)c1cccc(O)c1C3=O` [Beispiel 27, 7,10-Di-O-(4-O-paranitrobenzoyl-3-N-trifluoracetyl-α-L-daunosaminyl)-β-rhodomycinon], the “1h-Inkubation IC50” value under setting [3] is over 1 µg/mL. Further, under setting [4], the “Dauerinkubation IC50” value was over 1 µg/mL.
For the compound `CC[C@@]1(O)C[C@H](O[C@H]2C[C@H](NC(=O)C(F)(F)F)[C@H](OC(C)=O)[C@H](C)O2)c2c(O)c3c(c(O)c2[C@H]1O[C@H]1C[C@H](NC(=O)C(F)(F)F)[C@H](OC(C)=O)[C@H](C)O1)C(=O)c1cccc(O)c1C3=O` [Beispiel 28, 7,10-Di-O-(4-O-acetyl-3-N-trifluoracetyl-α-L-daunosaminyl)-β-rhodomycinon], the IC50 runs as follows: under setting [5], over 1 µg/mL; under setting [6], over 1 µg/mL.
In the case of `CC[C@@]1(O)C[C@H](O[C@H]2C[C@H](N)[C@H](O)[C@H](C)O2)c2c(O)c3c(c(O)c2[C@H]1O[C@H]1C[C@H](N)[C@H](O)[C@H](C)O1)C(=O)c1cccc(O)c1C3=O` [Beispiel 29, 7,10-Di-O-α-L-daunosaminyl-β-rhodomycinon], the IC50 by setting is: under setting [5], over 10 µg/mL; under setting [6], over 1 µg/mL.
As to `CC[C@@]1(O)C[C@H](O[C@H]2C[C@H](NC(=O)C(F)(F)F)[C@@H](OCc3ccccc3)[C@H](C)O2)c2c(O)c3c(c(O)c2[C@H]1O)C(=O)c1cccc(O)c1C3=O` [Beispiel 49, 7-O-(4-O-Benzyl-3-N-trifluoracetyl-α-L-acosaminyl)-β-rhodomycinon], the IC50 under setting [2] is over 1 µg/mL.
Turning to `CC[C@@]1(O)C[C@H](O[C@H]2C[C@H](NC(=O)C(F)(F)F)[C@@H](O)[C@H](C)O2)c2c(O)c3c(c(O)c2[C@H]1O)C(=O)c1cccc(O)c1C3=O` [Beispiel 45, 7-O-(3-N-Trifluoracetyl-α-L-acosaminyl)-ß-rhodomycinon], the IC50 under setting [6] was 0.29 µg/mL (≈ 0.474 µM).
As for `CC[C@@]1(O)C[C@H](O[C@H]2C[C@H](NCC#N)[C@H](O)[C@H](C)O2)c2c(O)c3c(c(O)c2[C@H]1O[C@H]1C[C@H](NCC#N)[C@H](O)[C@H](C)O1)C(=O)c1cccc(O)c1C3=O` [Beispiel 30, 7,10-O-Di-(3-N-Cyanomethyl-α-L-daunosaminyl)-β-rhodomycinon], the IC50 by setting is: under setting [1], 0.5 µg/mL (≈ 0.692 µM); under setting [2], over 1 µg/mL.
For the compound `CC[C@@]1(O)C[C@H](O[C@H]2C[C@H](NC(=O)C(F)(F)F)[C@H](OC(=O)c3ccc([N+](=O)[O-])cc3)[C@H](C)O2)c2c(O)c3c(c(O)c2[C@H]1OC(=O)C(F)(F)F)C(=O)c1cccc(O)c1C3=O` [Beispiel 18, 7-O-(4-O-Paranitrobenzoyl-3-N-trifluoracetyl-α-L-daunosaminyl)-10-O-trifluoracetyl-β-rhodomycinon], the IC50 reads like this: under setting [5], 0.13 µg/mL (≈ 0.152 µM); under setting [6], over 1 µg/mL.
For `CC[C@@]1(O)C[C@H](O[C@H]2C[C@H](NC(=O)C(F)(F)F)[C@@H](OC(=O)c3ccc([N+](=O)[O-])cc3)[C@H](C)O2)c2c(O)c3c(c(O)c2[C@H]1OC(=O)C(F)(F)F)C(=O)c1cccc(O)c1C3=O` [Beispiel 13, 7-0-(4-0-Paranitrobenzoyl-3-N-trifluoracetyl-α-L-acosaminyl)-10-0-trifluoracetyl-β-rhodomycinon] the same measures were 0.03 µg/mL (≈ 0.035 µM) and over 1 µg/mL.
Take `CC[C@@]1(O)C[C@H](O[C@H]2C[C@H](N)[C@@H](OCc3ccccc3)[C@H](C)O2)c2c(O)c3c(c(O)c2[C@H]1O)C(=O)c1cccc(O)c1C3=O` [Beispiel 48, 7-O-(4-O-Benzyl-α-L-acosaminyl)-β-rhodomycinon]: the 50% inhibitory concentration (IC50) under setting [6] was 0.095 µg/mL (≈ 0.157 µM).
For the compound `CC[C@@]1(O)C[C@H](O[C@H]2C[C@H](N(C)C)[C@H](O)[C@H](C)O2)c2c(O)c3c(c(O)c2[C@H]1O[C@H]1C[C@H](N)[C@@H](O)[C@H](C)O1)C(=O)c1cccc(O)c1C3=O` [Beispiel 40, 10-0-α-L-Acosaminyl-7-0-α-L-rhodosaminyl-β-rhodomycinon], the IC50 is, setting by setting: under setting [5], 0.85 µg/mL (≈ 1.26 µM); under setting [6], over 1 µg/mL.
For `CC[C@@]1(O)C[C@H](O)c2c(O)c3c(c(O)c2[C@H]1O[C@H]1C[C@H](N)[C@H](O)[C@H](C)O1)C(=O)c1cccc(O)c1C3=O` [Beispiel 11, 10-0-α-L-Daunosaminyl-β-rhodomycinon] the same measures were over 1 µg/mL and over 1 µg/mL.
On the same counts, the results for `CC[C@@]1(O)C[C@H](O[C@H]2C[C@H](NC(=O)C(F)(F)F)[C@@H](OC(=O)c3ccc([N+](=O)[O-])cc3)[C@H](C)O2)c2c(O)c3c(c(O)c2[C@H]1O)C(=O)c1cccc(O)c1C3=O` [Beispiel 14, 7-0-(4-0-Paranitrobenzoyl-3-N-trifluoracetyl-α-L-acosaminyl)-β-rhodomycinon] are 0.024 µg/mL (≈ 0.0316 µM) and over 1 µg/mL.
Take `CC[C@@]1(O)C[C@H](O[C@H]2C[C@@H](N)[C@@H](O)[C@H](C)O2)c2c(O)c3c(c(O)c2[C@H]1O)C(=O)c1cccc(O)c1C3=O` [Beispiel 46, 7-O-α-L-Ristosaminyl-β-rhodomycinon]: the IC50 under setting [6] is 0.11 µg/mL (≈ 0.213 µM).
On to `CC[C@@]1(O)C[C@H](O)c2c(O)c3c(c(O)c2[C@H]1O[C@H]1C[C@H](NC(=O)C(F)(F)F)[C@H](OC(=O)c2ccc([N+](=O)[O-])cc2)[C@H](C)O1)C(=O)c1cccc(O)c1C3=O` [Beispiel 9, 10-0-(4-0-Paranitrobenzoyl-3-N-trifluoracetyl-α-L-daunosaminyl)-β-rhodomycinon], for which the IC50 runs as follows: under setting [5], 0.6 µg/mL (≈ 0.789 µM); under setting [6], over 10 µg/mL.
Take `CC[C@@]1(O)C[C@H](O[C@H]2C[C@H](NC(=O)C(F)(F)F)[C@@H](OC(=O)c3ccc([N+](=O)[O-])cc3)[C@H](C)O2)c2c(O)c3c(c(O)c2[C@H]1O[C@H]1C[C@H](NC(=O)C(F)(F)F)[C@H](OC(=O)c2ccc([N+](=O)[O-])cc2)[C@H](C)O1)C(=O)c1cccc(O)c1C3=O` [Beispiel 35, 7-0-(4-0-Paranitrobenzoyl-3-N-trifluoracetyl-α-L-acosaminyl)-10-0-(4-0-paranitrobenzoyl-3-N-trifluoracetyl-α-L-daunosaminyl)-β-rhodomycinon]: the IC50 is over 1 µg/mL under setting [1] and over 1 µg/mL under setting [2].
Take `CC[C@@]1(O)C[C@H](O[C@H]2C[C@H](NCC#N)[C@H](O)[C@H](C)O2)c2c(O)c3c(c(O)c2[C@H]1O)C(=O)c1cccc(O)c1C3=O` [Beispiel 17, 7-O-(3-N-Cyanomethyl-α-L-daunosaminyl)-β-rhodomycinon]: the IC50 turned out to be 0.004 µg/mL (≈ 0.00721 µM) under setting [1] and 0.09 µg/mL (≈ 0.162 µM) under setting [2].
For the compound `CC[C@@]1(O)C[C@H](O[C@@H]2O[C@@H](C)[C@H](O)[C@@H](O)[C@H]2I)c2c(O)c3c(c(O)c2[C@H]1O)C(=O)c1cccc(O)c1C3=O` [Beispiel 50, 7-O-(2,6-Didesoxy-2-iodo-α-L-mannopyranosyl)-β-rhodomycinon], the IC50 under setting [5] stood at 0.1 µg/mL (≈ 0.156 µM).
Regarding `CC[C@@]1(O)C[C@H](O)c2c(O)c3c(c(O)c2[C@H]1O[C@H]1C[C@H](NC(=O)C(F)(F)F)[C@@H](OC(=O)c2ccc([N+](=O)[O-])cc2)[C@H](C)O1)C(=O)c1cccc(O)c1C3=O` [Beispiel 8, 10-0-(4-0-Paranitrobenzoyl-3-N-trifluor-acetyl-α-L-acosaminyl)-β-rhodomycinon], the IC50 was over 1 µg/mL under setting [5] and over 1 µg/mL under setting [6].
As to `CC[C@@]1(O)C[C@H](O[C@H]2C[C@H](NC(=O)C(F)(F)F)[C@H](OC(=O)c3ccc([N+](=O)[O-])cc3)[C@H](C)O2)c2c(O)c3c(c(O)c2[C@H]1O)C(=O)c1cccc(O)c1C3=O` [Beispiel 19, 7-O-(4-O-Paranitrobenzoyl-3-N-trifluoracetyl-α-L-daunosaminyl)-β-rhodomycinon], the IC50 runs as follows: under setting [5], 0.11 µg/mL (≈ 0.145 µM); under setting [6], over 1 µg/mL.
